This note sets out measurements from publication PMC9959349, “Discovery of the 3-Amino-1,2,4-triazine-Based Library as Selective PDK1 Inhibitors with Therapeutic Potential in Highly Aggressive Pancreatic Ductal Adenocarcinoma” (International Journal of Molecular Sciences, 2023).

Data set [1] concerns S232 PDH E1 alpha protein (PDHA1) phosphorylation in PSN-1 cells. Nature of the data set: Cellular PDH phosphorylation (ELISA). Conditions: 24 h, IC50 concentrations. The format is cell-based, human. The procedure: As a first step, the ability of representative derivatives to target PDK in intact cancer cells was assessed by evaluating their effect on PDH phosphorylation of PSN-1 cancer cells.
PSN-1 cells (2 × 10^5) were seeded in a six-well plate in growth medium (4 mL). After 24 h, cells were incubated for 24 h with IC50 concentrations of tested compounds. Subsequently, the phosphorylation level of S232 PDH E1 alpha protein (PDHA1) was assessed by ELISA Kit (Abcam) following the manufacturer’s instructions. The amount of phosphorylated S232 PDHA1 protein was detected by measuring the absorbance of each well at 600 nm, using a Bio-Rad 680 microplate reader.
(In general: An ELISA detects its analyte on a solid surface through an enzyme-linked reagent.)

In a further data set the target is recombinant human HSP90 (Homo sapiens, UniProt P07900). Briefly: HSP90 inhibition assay (Transcreener ADP kit). The format is biochemical. The following applies: 1.5 µM compound (equivalent doses). The method, then: The in vitro inhibitory activity of tested compounds on recombinant human HSP90 was assessed by The Transcreener™ ADP kit (Bellbrook Labs) according to the manufacturer’s protocol. Human recombinant HSP90 protein was incubated with tested compounds in the presence of 250 μM ATP at 37 °C for 30 min, 4°C for 30 min and ATPase activity was stopped via the addition of the stop and detect buffer. Following this, samples were incubated for 1 h at room temperature with the ADP2 Antibody and the ADP Alexa594 Tracer. The fluorescence intensity polarization of samples was measured with a Tecan plate reader (Tecan Infinite® M200). The evaluation was based on means from at least three independent experiments.

Data set [2] can be described thus: Body weight changes of LLC-bearing mice. The format is in vivo. The following applies: LLC-bearing C57BL mice, 5i 20 mg kg−1 daily i.p.
Another data set deals with PSN-1 cells. Nature of the data set: Mitochondrial membrane potential (Mito-ID kit). Type of data set: cell-based, human. The following applies: IC50 concentrations. The procedure:
The ΔΨ was assayed using the Mito-ID® Membrane Potential Kit according to the manufacturer’s instructions (Enzo Life Sciences, Farmingdale, NY, USA) as previously described. Briefly, PSN-1 cells (8 × 10^3 per well) were seeded in 96-well plates; after 24 h, cells were washed with PBS and loaded with Mito-ID Detection Reagent for 30 min at 37 °C in the dark. Afterward, cells were incubated with tested compounds for 60 min. CCCP (Carbonyl cyanide 3-chlorophenyl-hydrazone) was used as the positive control. Fluorescence intensity was estimated using a VICTOR X3 (PerkinElmer, Waltham, MA, USA) plate reader at 490 (excitation) and 590 nm (emission).

For the molecule `Cn1cc(-c2nnc(N)nc2-c2cn(C)c3ccc(F)cc23)c2ccccc21` [5i], the “reduction in phospho-PDHA1 (S232) levels” value in data set [1] was “very similar to that exerted by the reference PDK inhibitor DAP”. Moreover, at recombinant human HSP90, the “decrease of HSP90 catalytic activity” value is listed as 60–80%. The “body weight loss (in words)” value in data set [2] was “lower than that induced by cisplatin and gemcitabine”. Further, the “percentage of cells with hypopolarized mitochondrial membrane potential (in words)” value with PSN-1 cells was “significantly increased”.
